Data: ChEMBL document CHEMBL4811258, “Potent Antimalarials with Development Potential Identified by Structure-Guided Computational Optimization of a Pyrrole-Based Dihydroorotate Dehydrogenase Inhibitor Series” (J Med Chem, 2021)
Converted amounts (≈) assume the structure as drawn.

Experiments:
[1] = Oral bioavailability in Sprague-Dawley rat at 31 mg/kg measured up to 24 hrs; type: ADME, organism-based; conditions: in vivo
[2] = Tmax in Sprague-Dawley rat at 31 mg/kg, po measured up to 24 hrs; type: ADME, organism-based; conditions: in vivo
[3] = Binding affinity to microsome (unknown origin); type: ADME; conditions: microsomes
[4] = Tmax in Swiss mouse at 20 mg/kg, po measured up to 24 hrs by LC-MS analysis; type: ADME, organism-based; conditions: in vivo
[5] = Unbound intrinsic clearance in mouse liver microsomes at 1 uM measured up to 4 hrs by LC-MS analysis; type: ADME, Microsome
[6] = Plasma clearance in Sprague-Dawley rat at […], iv measured up to 24 hrs; type: ADME, organism-based
[7] = buffer, pH 1.6, 1 h
[8] = buffer, pH 7.4, 5 h
Plasmodium falciparum [9] = assay: Antiplasmodial activity against asexual blood stage chloroquine and pyrimethamine-resistant Plasmodium falciparum Dd2 infected in human erythrocytes assessed as parasite killing; type: functional, organism-based
[10] = Inhibition of dog DHODH up to 100 uM; parameters: species or system Canis lupus familiaris; conditions: up to 100 µM
[11] = Intrinsic clearance in mouse liver microsomes at 1 uM measured up to 4 hrs by LC-MS analysis; type: ADME, Microsome
L1210 = assay: Cytotoxicity against mouse L1210 cells; type: cell-based
Cytochrome P450 2B6 = molecular target: T1, Cytochrome P450 2B6 (Homo sapiens, UniProt P20813)
T1 sequence (P20813 whole entry): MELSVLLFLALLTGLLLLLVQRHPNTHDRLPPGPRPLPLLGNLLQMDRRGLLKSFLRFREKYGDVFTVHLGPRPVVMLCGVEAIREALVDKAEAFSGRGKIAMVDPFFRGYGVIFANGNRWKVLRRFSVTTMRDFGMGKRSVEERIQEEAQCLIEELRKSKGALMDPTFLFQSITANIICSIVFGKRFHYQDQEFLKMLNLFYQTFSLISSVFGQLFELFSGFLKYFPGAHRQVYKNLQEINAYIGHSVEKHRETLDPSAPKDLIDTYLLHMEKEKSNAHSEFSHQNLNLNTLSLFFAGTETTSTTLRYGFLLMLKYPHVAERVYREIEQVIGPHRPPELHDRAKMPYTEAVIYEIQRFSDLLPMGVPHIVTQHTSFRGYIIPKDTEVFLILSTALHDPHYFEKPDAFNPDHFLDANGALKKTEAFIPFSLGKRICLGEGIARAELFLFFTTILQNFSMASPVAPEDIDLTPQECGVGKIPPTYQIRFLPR

[12] = Inhibition of Plasmodium falciparum DHODH expressed in Escherichia coli BL21-DE3 using L-dihydroorotate as substrate by steady-state DCIP method
Plasmodium falciparum [13] = test system: Plasmodium falciparum
in vitro [14] = conditions: mouse, blood and plasma
[15] = mouse, plasma
[16] = Half life in Swiss mouse at 20 mg/kg, po measured up to 24 hrs by LC-MS analysis; type: ADME, organism-based; conditions: in vivo
[17] = molecular target: Dihydroorotate dehydrogenase (quinone), mitochondrial (Mus musculus, UniProt O35435); assay: Inhibition of mouse DHODH up to 100 uM; conditions: up to 100 µM
Chain of Dihydroorotate dehydrogenase (quinone), mitochondrial (Mus musculus, UniProt O35435) (O35435 whole entry): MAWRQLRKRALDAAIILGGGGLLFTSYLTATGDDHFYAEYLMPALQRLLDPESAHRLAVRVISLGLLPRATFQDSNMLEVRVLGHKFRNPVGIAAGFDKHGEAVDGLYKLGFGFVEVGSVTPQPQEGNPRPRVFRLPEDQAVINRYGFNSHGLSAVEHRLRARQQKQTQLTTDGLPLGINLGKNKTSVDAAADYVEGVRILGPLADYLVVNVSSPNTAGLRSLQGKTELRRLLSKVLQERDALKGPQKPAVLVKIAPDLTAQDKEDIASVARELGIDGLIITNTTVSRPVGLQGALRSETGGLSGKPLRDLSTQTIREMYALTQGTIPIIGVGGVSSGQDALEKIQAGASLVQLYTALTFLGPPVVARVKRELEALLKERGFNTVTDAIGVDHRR

HepG2 = assay: Cytotoxicity against human HepG2 cells; type: cell-based
[18] = Cmax in Swiss mouse at 20 mg/kg, po measured up to 24 hrs by LC-MS analysis; type: ADME, organism-based; parameters: route oral, dose 20 mg/kg, time <=24; conditions: in vivo
[19] = simulated gi fluid, pH 5.8, 5 h
Cytochrome P450 2C8 = molecular target: T2, Cytochrome P450 2C8 (Homo sapiens, UniProt P10632)
T2 sequence (P10632 whole entry): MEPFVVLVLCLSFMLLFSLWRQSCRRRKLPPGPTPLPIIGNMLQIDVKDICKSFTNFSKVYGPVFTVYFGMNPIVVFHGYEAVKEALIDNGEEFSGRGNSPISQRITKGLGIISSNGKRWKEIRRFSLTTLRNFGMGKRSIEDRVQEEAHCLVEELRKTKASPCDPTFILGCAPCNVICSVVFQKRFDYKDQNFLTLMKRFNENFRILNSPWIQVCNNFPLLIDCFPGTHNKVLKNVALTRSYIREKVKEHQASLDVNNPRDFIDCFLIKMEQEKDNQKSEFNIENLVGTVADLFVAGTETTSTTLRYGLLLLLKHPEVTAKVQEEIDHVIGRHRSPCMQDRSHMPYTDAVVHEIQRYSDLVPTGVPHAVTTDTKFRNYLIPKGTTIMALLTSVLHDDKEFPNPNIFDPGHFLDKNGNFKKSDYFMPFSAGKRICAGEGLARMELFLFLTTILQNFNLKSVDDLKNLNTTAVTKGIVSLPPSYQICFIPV

[20] = Apparent half life in Sprague-Dawley rat at 31 mg/kg, po measured up to 24 hrs; type: ADME, organism-based; conditions: in vivo, read-out: t1/2(app) (converted)
Cytochrome P450 3A4 = Cytochrome P450 3A4 (Homo sapiens, UniProt P08684)
Chain of Cytochrome P450 3A4 (P08684 whole entry): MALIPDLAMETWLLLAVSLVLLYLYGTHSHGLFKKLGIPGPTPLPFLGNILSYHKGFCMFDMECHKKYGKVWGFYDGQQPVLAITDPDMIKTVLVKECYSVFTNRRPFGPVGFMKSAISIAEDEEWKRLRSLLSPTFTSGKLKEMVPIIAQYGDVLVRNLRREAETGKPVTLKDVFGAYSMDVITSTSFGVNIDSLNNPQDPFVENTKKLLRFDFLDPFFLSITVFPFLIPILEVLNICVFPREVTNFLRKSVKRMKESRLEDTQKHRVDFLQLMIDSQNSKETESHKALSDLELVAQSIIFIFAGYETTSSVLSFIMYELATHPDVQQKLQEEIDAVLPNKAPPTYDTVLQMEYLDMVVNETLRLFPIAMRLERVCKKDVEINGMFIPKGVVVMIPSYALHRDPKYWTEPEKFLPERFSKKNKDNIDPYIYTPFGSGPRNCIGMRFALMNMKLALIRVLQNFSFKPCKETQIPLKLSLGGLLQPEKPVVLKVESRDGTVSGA

[21] = Inhibition of Plasmodium vivax DHODH expressed in Escherichia coli BL21-DE3 using L-dihydroorotate as substrate by steady-state DCIP method
Albumin = Albumin (Bos taurus, UniProt P02769); assay: Binding affinity to bovine serum albumin by Albumax assay; type: ADME; conditions: cattle, isolated protein
Chain of Albumin (P02769 whole entry): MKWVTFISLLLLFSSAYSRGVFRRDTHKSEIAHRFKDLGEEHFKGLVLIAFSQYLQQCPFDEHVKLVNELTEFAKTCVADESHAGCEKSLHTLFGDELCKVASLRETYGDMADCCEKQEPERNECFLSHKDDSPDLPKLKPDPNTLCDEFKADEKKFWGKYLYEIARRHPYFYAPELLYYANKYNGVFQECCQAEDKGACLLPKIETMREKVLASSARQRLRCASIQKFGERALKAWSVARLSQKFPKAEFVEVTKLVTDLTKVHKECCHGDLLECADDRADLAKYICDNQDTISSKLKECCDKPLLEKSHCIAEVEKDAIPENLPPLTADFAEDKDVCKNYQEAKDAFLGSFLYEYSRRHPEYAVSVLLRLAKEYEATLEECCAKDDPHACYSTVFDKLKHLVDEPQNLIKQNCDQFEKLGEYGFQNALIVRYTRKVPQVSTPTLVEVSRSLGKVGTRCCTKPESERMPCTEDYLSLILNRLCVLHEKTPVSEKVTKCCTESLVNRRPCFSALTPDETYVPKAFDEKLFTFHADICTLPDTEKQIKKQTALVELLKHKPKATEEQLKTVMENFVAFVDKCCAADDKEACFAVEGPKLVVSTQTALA

[22] = Cmax in Sprague-Dawley rat at 31 mg/kg, po measured up to 24 hrs; type: ADME, organism-based; parameters: route oral, dose 31 mg/kg, time <=24; conditions: in vivo
[23] = Volume of distribution at steady state in Sprague-Dawley rat at […], iv measured up to 24 hrs; type: ADME, organism-based; conditions: in vivo, read-out: Vdss
[24] = molecular target: Dihydroorotate dehydrogenase (quinone), mitochondrial (Rattus norvegicus, UniProt Q63707); assay: Inhibition of rat DHODH up to 100 uM; conditions: up to 100 µM
Chain of Dihydroorotate dehydrogenase (quinone), mitochondrial (Rattus norvegicus, UniProt Q63707) (Q63707 whole entry): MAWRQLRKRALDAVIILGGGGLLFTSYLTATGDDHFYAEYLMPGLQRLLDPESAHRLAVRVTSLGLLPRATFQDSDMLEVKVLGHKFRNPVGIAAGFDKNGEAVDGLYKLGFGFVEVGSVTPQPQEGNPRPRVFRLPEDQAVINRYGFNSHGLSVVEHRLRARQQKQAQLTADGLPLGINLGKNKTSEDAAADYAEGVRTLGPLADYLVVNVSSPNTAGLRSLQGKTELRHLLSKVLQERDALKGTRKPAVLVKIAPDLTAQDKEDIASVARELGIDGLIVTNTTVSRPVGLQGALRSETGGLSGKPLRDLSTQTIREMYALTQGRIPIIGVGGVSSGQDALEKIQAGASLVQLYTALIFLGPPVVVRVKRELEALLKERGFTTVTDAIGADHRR

[25] = rat, plasma
in vitro [26] = conditions: rat, blood and plasma
[27] = human, plasma
[28] = AUC (0 to infinity) in Swiss mouse at 20 mg/kg, po measured up to 24 hrs by LC-MS analysis; type: ADME, organism-based; parameters: route oral, dose 20 mg/kg, time <=24; conditions: in vivo
[29] = simulated gi fluid, pH 6.5, 5 h
[30] = AUC (0 to infinity) in Sprague-Dawley rat at 31 mg/kg, po measured up to 24 hrs; type: ADME, organism-based; parameters: route oral, dose 31 mg/kg, time <=24; conditions: in vivo
[31] = Oral bioavailability in Sprague-Dawley rat at 28 mg/kg measured up to 24 hrs; type: ADME, organism-based; conditions: in vivo
[32] = Plasma clearance in Swiss mouse at […], iv measured up to 24 hrs by LC-MS analysis; type: ADME, organism-based; conditions: dose 2.8 mg/kg
[33] = Cmax in Sprague-Dawley rat at 28 mg/kg, po measured up to 24 hrs; type: ADME, organism-based; parameters: route oral, dose 28 mg/kg, time <=24; conditions: in vivo
[34] = Apparent half life in Sprague-Dawley rat at 28 mg/kg, po measured up to 24 hrs; type: ADME, organism-based; conditions: in vivo, read-out: t1/2(app) (converted)
[35] = human, caco-2, pH 7.4
Plasmodium berghei = assay: Antiplasmodial activity against liver stage Plasmodium berghei berghei-ANKA-GFP-Luc-SMCON (Pb-Luc) assessed as parasite killing infected in HepG2-A16-CD8IEGF cells; type: functional, organism-based
[36] = AUC (0 to infinity) in Sprague-Dawley rat at 28 mg/kg, po measured up to 24 hrs; type: ADME, organism-based; parameters: route oral, dose 28 mg/kg, time <=24; conditions: in vivo
[37] = Volume of distribution at steady state in Swiss mouse at […], iv measured up to 24 hrs by LC-MS analysis; type: ADME, organism-based; conditions: in vivo, dose 2.8 mg/kg, read-out: Vdss
[38] = human, caco-2, pH 7.4; remark: listed apart in the source
[39] = Oral bioavailability in Swiss mouse at 20 mg/kg measured up to 24 hrs by LC-MS analysis; type: ADME, organism-based; conditions: in vivo
[40] = Tmax in Sprague-Dawley rat at 28 mg/kg, po measured up to 24 hrs; type: ADME, organism-based; conditions: in vivo
Plasmodium falciparum [41] = assay: Antiplasmodial activity against asexual blood stage Plasmodium falciparum D10 expressing yeast DHODH infected in human erythrocytes assessed as parasite killing in presence of proguanil; type: functional, organism-based
Plasmodium falciparum [42] = assay: Antiplasmodial activity against Plasmodium falciparum Dd2 Uganda infected in human erythrocytes assessed as parasite killing using albumax media measured after 72 hrs by SYBR Green assay; type: functional, organism-based; conditions: Dd2, 72 h
Plasmodium falciparum [43] = assay: Antiplasmodial activity against Plasmodium falciparum 3D7 Uganda infected in human erythrocytes assessed as parasite killing using albumax media measured after 72 hrs by SYBR Green assay; type: functional, organism-based; conditions: 3D7, 72 h
Plasmodium falciparum [44] = assay: Antiplasmodial activity against Plasmodium falciparum Uganda field isolated from patients infected in human erythrocytes assessed as parasite killing using albumax media measured after 72 hrs by SYBR Green assay; type: functional, organism-based
[45] = Tmax in Sprague-Dawley rat at 32 mg/kg, po measured up to 24 hrs; type: ADME, organism-based; conditions: in vivo
[46] = Apparent half life in Sprague-Dawley rat at 32 mg/kg, po measured up to 24 hrs; type: ADME, organism-based; conditions: in vivo, read-out: t1/2(app) (converted)
Plasmodium falciparum [47] = assay: Antiplasmodial activity against asexual blood stage Plasmodium falciparum D10 expressing yeast DHODH infected in human erythrocytes assessed as parasite killing; type: functional, organism-based
[48] = AUC (0 to infinity) in Sprague-Dawley rat at 32 mg/kg, po measured up to 24 hrs; type: ADME, organism-based; parameters: route oral, dose 32 mg/kg, time <=24; conditions: in vivo
[49] = Cmax in Sprague-Dawley rat at 32 mg/kg, po measured up to 24 hrs; type: ADME, organism-based; parameters: route oral, dose 32 mg/kg, time <=24; conditions: in vivo
[50] = Oral bioavailability in Sprague-Dawley rat at 32 mg/kg measured up to 24 hrs; type: ADME, organism-based; conditions: in vivo

Row | SMILES | Activity [3] | Tmax [4] | CL free [5] | solubility [7] | EC50 (Plasmodium falciparum [9]) | inhibition (INH) [10] | Intrinsic clearance [11] | Activity (L1210) | IC50 [12] | PPB [15] | half-life [16] | inhibition (INH) [17] | Activity (HepG2) | Cmax [18] | IC50 [21] | Activity (Albumin) | inhibition (INH) [24] | PPB [25] | PPB [27] | AUC(0-inf) [28] | further results
1 | Cc1c(Cc2ccc(C(F)(F)F)nc2)c[nH]c1C(=O)NC(C)c1cn[nH]c1 (stereo in doubt; form 1) | 40.5% | 1 h | 52 µL/min/mg | 81 µg/mL (≈ 215 µM) | 2.4 nM | Not Active | 31 µL/min/mg | Non-Toxic | 47 nM | 92.1% | 4.4 h | Not Active | Non-Toxic | 6.4 µM | 43 nM | 49.5% | Not Active | 91.4% | 84% | 65 µM·h | bioavailability [1]: 10%; Tmax [2]: 3 h; clearance at 24 h ([6]; dose 2.9 mg/kg): 6.2 mL/min/kg; solubility [8]: 23 µg/mL (≈ 60.9 µM); IC50 (Cytochrome P450 2B6): > 20000 nM; EC50 (Plasmodium falciparum [13]): 4.5 nM; blood plasma ratio (in vitro [14]): 1.4; solubility [19]: 81 µg/mL (≈ 215 µM); IC50 (Cytochrome P450 2C8): 18300 nM; half-life [20]: 3.4 h; TDI (Cytochrome P450 3A4): Active; Cmax [22]: 2.4 µM; Vd at 24 h ([23]; dose 2.9 mg/kg): 1.7 L/kg; blood plasma ratio (in vitro [26]): 1.3; solubility [29]: 34 µg/mL (≈ 90.1 µM); AUC(0-inf) [30]: 22 µM·h
2 | Cc1cc(C(C)NC(=O)c2[nH]cc(Cc3ccc(C(F)(F)F)nc3)c2C)no1 (stereo in doubt; form 1) | 43.3% | 1 h | 111 µL/min/mg |  | 8.7 nM | Not Active | 63 µL/min/mg | Non-Toxic |  | 92.2% | 2.3 h | Not Active | Non-Toxic | 13 µM | 7.2 nM | 75% | Not Active | 93.7% | 94.7% | 66 µM·h | bioavailability [31]: 43%; clearance at 24 h [32]: 7.7 mL/min/kg; Cmax [33]: 16 µM; half-life [34]: 4.1 h; Papp [35]: 57 10^-6 cm/s; EC50 (Plasmodium berghei): 8.3 nM; EC50 (Plasmodium falciparum [13]): 9.3 nM; AUC(0-inf) [36]: 160 µM·h; Vd at 24 h [37]: 1.4 L/kg; Papp [38]: 48 10^-6 cm/s; bioavailability [39]: 61%; Tmax [40]: 4.3 h
3 | Cc1c(Cc2ccc(C(F)(F)F)nc2)c[nH]c1C(=O)NC(C)c1cnn(C)c1 (stereo in doubt; form 1) | 44.8% | 1 h | 75 µL/min/mg | 113 µg/mL (≈ 289 µM) |  | Not Active | 41 µL/min/mg | Non-Toxic | 46 nM | 93.6% | 3.5 h | Not Active | Non-Toxic | 36 µM | 3.9 nM | 49.5% | Not Active | 95.1% | 83% | 217 µM·h | clearance at 24 h ([6]; dose 2.8 mg/kg): 2.4 mL/min/kg; EC50 (Plasmodium falciparum [41]): > 10000 nM; EC50 (Plasmodium falciparum [42]): 5.9 nM; EC50 (Plasmodium falciparum [43]): 6.2 nM; EC50 (Plasmodium falciparum [44]): 9.8 nM; Tmax [45]: 3.5 h; solubility [19]: 158 µg/mL (≈ 404 µM); half-life [46]: 3.7 h; EC50 (Plasmodium falciparum [47]): > 10000 nM; IC50 (Cytochrome P450 2C8): > 20000 nM; TDI (Cytochrome P450 3A4): Not Active; Vd at 24 h ([23]; dose 2.8 mg/kg): 0.87 L/kg; AUC(0-inf) [48]: 360 µM·h; Cmax [49]: 35 µM; bioavailability [50]: 61%; solubility [29]: 60 µg/mL (≈ 153 µM)
